# Results: article PMC12111156, “Nitazoxanide Analogs: Synthesis, In Vitro Giardicidal Activity, and Effects on Giardia lamblia Metabolic Gene Expression” (International Journal of Molecular Sciences, 2025)
# How the values were obtained:
# [1] = test system: Giardia lamblia trophozoites (strain ATCC 30957) gene expression; assay: Gene expression in trophozoites by RT-qPCR; type: cell-based; conditions: IC50 of each compound, 48 h
# Method: To determine the alterations in the parasite’s metabolism and cellular processes induced by the compounds, the expression levels of various genes encoding metabolic, structural, and oxidative stress response proteins were evaluated. G. lamblia strain ATCC 30957 was grown by following previously established culture parameters.
# The culture tube was incubated on ice for 15 min and then centrifuged at 2000 rpm for 6 min to concentrate the cell pellet. Cell counting was performed using the trypan blue method. A 500 µL volume of Trizol ® was added, and it was gently homogenized; then, 60 µL of chloroform was added, and it was homogenized for 10 s with a vortex and incubated on ice for 3 min. Afterward, it was centrifuged at 12,000 rpm for 10 min, the aqueous phase was transferred to a new tube, 200 µL of isopropanol was added, and it was incubated for 3 h on ice. The sample was then centrifuged for 10 min at 12,000 rpm, and the supernatant was discarded. A 600 µL volume of ethanol (70%) was added, homogenized, and centrifuged. In the end, the supernatant was removed, and the sample was centrifuged again to dry the excess alcohol. The pellet was dried. Finally, it was resuspended in 25 µL of sterile MilliQ water. The concentration and purity of the extracted RNA were determined using the NanoDrop® Spectrophotometer ND-1000 (NanoDrop Technologies, Wilmington, DE, USA). […] RNA purity and integrity were confirmed using 0.8% (w/v) agarose gels under denaturing conditions.
# The synthesis of cDNA was carried out with […] of purified RNA, and 1 U of […] was added (Thermo Thermo Fisher Scientific, Waltham, MA, USA). First-strand cDNA synthesis was carried out using 1 μg of DNase-treated RNA, combined with a 10 mM dNTP mix, oligo(dT)18 primer, and RevertAid reverse transcriptase (Thermo Scientific) in a final reaction volume of 20 μL. The reaction mixture was incubated at 42 °C for 60 min, followed by heat inactivation at 70 °C for 10 min. The synthesized cDNA was stored at −20 °C until further use. The level of purity and concentration of the cDNA were determined using the NanoDrop® Spectrophotometer ND-1000 (NanoDrop Technologies, Wilmington, DE, USA).
# Specific oligonucleotides were designed to determine the expression levels of the gene’s phosphofructokinase, pyruvate kinase, glucose-6-phosphate dehydrogenase::6-phosphogluconolactonase, 6-phosphogluconate dehydrogenase, and transketolase. The design was based on gene sequences available in the National Center for Biotechnology Information (NCBI) database, adhering to the following criteria: an oligonucleotide length of 18–20 bp, a melting temperature (Tm) of 61 °C, a GC content of approximately 40%, and an amplicon size between 80 and 200 bp (Table 4). The oligonucleotides were synthesized by the Sequencing and Synthesis Unit of the Institute of Biotechnology, UNAM.
# Additionally, previously reported primers that were used for the gene expression analysis of G. lamblia were also obtained (Table 4). These primers target genes encoding surface structural protein, giardin, actin, pyruvate:ferredoxin oxidoreductase, pyruvate phosphate dikinase, NADH oxidase, triose phosphate isomerase, glyceraldehyde-3-phosphate dehydrogenase, and Aldolase.
# Amplification was performed using a StepOne™ Real-Time PCR System and the Fast SYBR® Green Master Mix kit (Applied Biosystems, Foster City, CA, USA) under the following conditions: an initial denaturation at 95 °C for 30 s, followed by 40 cycles of 95 °C for 3 s and 60 °C for 30 s. The melt curve analysis was conducted post-amplification by gradually increasing the temperature from 60 °C to 95 °C. […] Normalization was performed using the geometric mean of cycle threshold (Ct) values, and the relative expression levels of the target genes were calculated using the 2^−ΔΔCt method. Each reaction was performed in five replicates for all analyzed genes and strains. Results are presented as mean values ± standard deviation (SD).
# [2] = test system: Caco-2 and HT-29 cells; assay: Cytotoxicity, XTT viability assay, stated for both cell lines; type: cell-based, human; conditions: 125 µM, 48 h
# Method: The suspension was added to a 96-well plate. […] Cell viability was determined using the following steps.
structure (smiles),measurement,setting,value
"CCCCC(=O)Nc1ncc([N+](=O)[O-])s1 [FLP-2, N-(5-Nitro-1,3-thiazol-2-yl)pentanamide]",6PGDH gene expression vs control,[1],differential overexpression
same,"ACT (actin) gene expression, decrease vs control",[1],10 times
same,G6PD::6PGL gene expression vs control,[1],117.4 fold change
same,GAPDH gene expression vs control,[1],18.3 fold change
same,"GIA (giardin) gene expression, increase vs control",[1],20.1 times
same,"NADHox gene expression, increase vs control",[1],lower
same,PFK gene expression vs control,[1],reduction
same,PFOR gene expression vs control,[1],16 fold change
same,PPDK gene expression vs control,[1],21.8 fold change
same,"TKT gene expression, increase vs control",[1],45.1 times
same,"VSP gene expression, increase vs control",[1],47.8 times
same,Decrease of cell viability,[2],up to 20%
